The source made the active and inactive calls. The rule behind the calls is not given here.
Columns and labels:
DU-145 [1] = test: Antiproliferative activity against human DU-145 cells assessed as inhibition of cell proliferation incubated for 72 hrs by MTT assay; format: functional, cell-based; conditions: DU-145, 72 h
[2] = target: DNA (cytosine-5)-methyltransferase 1 (Homo sapiens, UniProt P26358); test: Inhibition of N-terminal GST-tagged full-length recombinant human DNMT1 assessed as DNA methylation using pdI-pdC DNA as substrate preincubated for 15 mins followed by substrate addition in presence of [3H]-SAM and measured after 150 mins by radioactive methylation assay
K562 [3] = test: Antiproliferative activity against human K562 cells assessed as inhibition of cell proliferation incubated for 72 hrs by MTT assay; format: functional, cell-based; conditions: K562, 72 h
DNMT3B = DNMT3B (Homo sapiens, UniProt Q9UBC3); test: Inhibition of N-terminal His-tagged human DNMT3B (564 to 853 residues)/N-terminal GST-tagged human DNMT3L (160 to 387 residues) co-expressed in baculovirus infected Sf9 cells assessed as DNA methylation using DNA oligonucleotide IDT-01 as substrate preincubated for 15 mins followed by substrate addition in presence of [3H]-SAM and measured after 4 hrs by radioactive methylation assay
U-937 [4] = test: cells; conditions: Homo sapiens, U-937, 72 h
Description: Antiproliferative activity against human U-937 cells assessed as inhibition of cell proliferation incubated for 72 hrs by MTT assay

HCT-116 [5] = test: Antiproliferative activity against human HCT-116 cells assessed as inhibition of cell proliferation at 100 uM incubated for 24 to 72 hrs by MTT assay; format: functional, cell-based; conditions: time 24-72 hrs, TDE = time-dependent effect
HCT-116 [6] = test: Antiproliferative activity against human HCT-116 cells assessed as inhibition of cell proliferation at 0.1 to 100 uM incubated upto 72 hrs by MTT assay; format: functional, cell-based; conditions: dose 0.1-100 µM
[7] = target: DNA (cytosine-5)-methyltransferase 3A (Homo sapiens) (UniProt Q9Y6K1); test: Inhibition of DNMT3A in human HCT-116 cells assessed as increase in p53 protein level at 1 uM incubated for 72 hrs by Western blot analysis; format: cell-based
[8] = target: T1, DNMT3A2/3L complex (Homo sapiens) (UniProt Q9Y6K1+Q9UJW3); test: Inhibition of N-terminal His-tagged human DNMT3A (623 to 912 residues)/N-terminal GST-tagged human DNMT3L (160 to 387 residues) co-expressed in baculovirus infected Sf9 cells assessed as DNA methylation using DNA oligonucleotide IDT-01 as substrate at 100 uM preincubated for 15 mins followed by substrate addition in presence of [3H]-SAM and measured after 4 hrs by radioactive methylation assay; conditions: time 255.0 min
THP-1 [9] = test: Antiproliferative activity against human THP-1 cells assessed as inhibition of cell proliferation at 0.1 to 100 uM incubated upto 72 hrs by MTT assay; format: functional, cell-based; conditions: dose 0.1-100 µM
U-937 [10] = test: Antiproliferative activity against human U-937 cells assessed as inhibition of cell proliferation at 100 uM incubated for 24 to 72 hrs by MTT assay; format: functional, cell-based; conditions: time 24-72 hrs, TDE = time-dependent effect
THP-1 [11] = test: Antiproliferative activity against human THP-1 cells assessed as inhibition of cell proliferation incubated for 72 hrs by MTT assay; format: functional, cell-based; conditions: THP-1, 72 h
DU-145 [12] = test: Antiproliferative activity against human DU-145 cells assessed as inhibition of cell proliferation at 0.1 to 100 uM incubated upto 72 hrs by MTT assay; format: functional, cell-based; conditions: dose 0.1-100 µM
[13] = target: T1, DNMT3A2/3L complex (Homo sapiens); test: Inhibition of N-terminal His-tagged human DNMT3A (623 to 912 residues)/N-terminal GST-tagged human DNMT3L (160 to 387 residues) co-expressed in baculovirus infected Sf9 cells assessed as DNA methylation using DNA oligonucleotide IDT-01 as substrate at 10 uM preincubated for 15 mins followed by substrate addition in presence of [3H]-SAM and measured after 4 hrs by radioactive methylation assay; conditions: time 255.0 min
[14] = Cytotoxicity activity against human PBMC cells assessed as inhibition of cell proliferation incubated for 72 hrs by MTT assay; format: toxicity, cell-based
A549 [15] = test: cells; conditions: Homo sapiens, A549, 72 h
Description: Antiproliferative activity against human A549 cells assessed as inhibition of cell proliferation incubated for 72 hrs by MTT assay

A549 [16] = test: Antiproliferative activity against human A549 cells assessed as inhibition of cell proliferation at 100 uM incubated for 24 to 72 hrs by MTT assay; format: functional, cell-based; conditions: time 24-72 hrs, TDE = time-dependent effect
A549 [17] = test: Antiproliferative activity against human A549 cells assessed as inhibition of cell proliferation at 0.1 to 100 uM incubated upto 72 hrs by MTT assay; format: functional, cell-based; conditions: dose 0.1-100 µM
THP-1 [18] = test: Antiproliferative activity against human THP-1 cells assessed as inhibition of cell proliferation at 100 uM incubated for 24 to 72 hrs by MTT assay; format: functional, cell-based; conditions: time 24-72 hrs, TDE = time-dependent effect
HCT-116 [19] = test: cells; conditions: Homo sapiens, HCT-116, 72 h
Description: Antiproliferative activity against human HCT-116 cells assessed as inhibition of cell proliferation incubated for 72 hrs by MTT assay

DU-145 [20] = test: Antiproliferative activity against human DU-145 cells assessed as inhibition of cell proliferation at 100 uM incubated for 24 to 72 hrs by MTT assay; format: functional, cell-based; conditions: time 24-72 hrs, TDE = time-dependent effect
[21] = target: DNA (cytosine-5)-methyltransferase 3A (Homo sapiens) (UniProt Q9Y6K1); test: Inhibition of DNMT3A in human HCT-116 cells assessed as downregulation of DNMT3A protein level at 1 uM incubated for 72 hrs by Western blot analysis; format: cell-based
[22] = target: T2, Histone-lysine N-methyltransferase EHMT2 (Homo sapiens, UniProt Q96KQ7); test: Inhibition of N-terminal GST-tagged human G9a expressed in baculovirus infected Sf9 cells using biotinylated histone H3 peptide as substrate preincubated for 15 mins followed by substrate addition in presence of SAM and measured after 60 mins by AlphaLISA assay
T2 sequence (Q96KQ7 whole entry): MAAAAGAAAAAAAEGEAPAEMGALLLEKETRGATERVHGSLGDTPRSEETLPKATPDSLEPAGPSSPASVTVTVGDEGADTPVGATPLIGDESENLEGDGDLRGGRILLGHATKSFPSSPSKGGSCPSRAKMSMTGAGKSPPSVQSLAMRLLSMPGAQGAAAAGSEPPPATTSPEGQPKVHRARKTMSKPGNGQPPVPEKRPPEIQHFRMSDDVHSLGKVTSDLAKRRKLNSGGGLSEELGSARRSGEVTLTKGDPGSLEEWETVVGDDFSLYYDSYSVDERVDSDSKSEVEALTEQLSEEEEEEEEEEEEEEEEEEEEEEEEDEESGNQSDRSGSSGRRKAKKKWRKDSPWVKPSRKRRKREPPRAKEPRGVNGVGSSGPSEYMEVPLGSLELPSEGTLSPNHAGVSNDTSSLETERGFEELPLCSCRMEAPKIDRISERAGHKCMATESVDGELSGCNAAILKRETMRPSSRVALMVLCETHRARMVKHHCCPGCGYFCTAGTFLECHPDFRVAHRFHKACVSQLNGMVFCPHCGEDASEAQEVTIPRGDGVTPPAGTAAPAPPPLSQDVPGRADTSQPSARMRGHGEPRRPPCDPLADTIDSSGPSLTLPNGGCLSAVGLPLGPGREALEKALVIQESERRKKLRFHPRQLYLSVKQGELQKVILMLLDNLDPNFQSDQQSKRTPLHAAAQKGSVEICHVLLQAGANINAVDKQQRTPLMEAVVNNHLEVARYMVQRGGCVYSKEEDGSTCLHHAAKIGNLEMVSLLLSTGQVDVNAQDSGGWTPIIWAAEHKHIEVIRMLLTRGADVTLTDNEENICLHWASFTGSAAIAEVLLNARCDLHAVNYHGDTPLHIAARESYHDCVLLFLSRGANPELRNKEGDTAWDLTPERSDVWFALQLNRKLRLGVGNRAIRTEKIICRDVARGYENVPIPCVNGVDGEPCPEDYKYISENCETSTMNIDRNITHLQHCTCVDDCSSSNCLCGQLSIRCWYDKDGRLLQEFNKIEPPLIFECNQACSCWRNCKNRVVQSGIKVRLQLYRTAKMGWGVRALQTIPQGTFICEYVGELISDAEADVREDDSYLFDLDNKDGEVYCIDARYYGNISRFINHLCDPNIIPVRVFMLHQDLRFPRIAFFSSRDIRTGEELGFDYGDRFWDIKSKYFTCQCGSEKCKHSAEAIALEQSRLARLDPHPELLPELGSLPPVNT

K562 [23] = test: Antiproliferative activity against human K562 cells assessed as inhibition of cell proliferation at 0.1 to 100 uM incubated upto 72 hrs by MTT assay; format: functional, cell-based; conditions: dose 0.1-100 µM
U-937 [24] = test: Antiproliferative activity against human U-937 cells assessed as inhibition of cell proliferation at 0.1 to 100 uM incubated upto 72 hrs by MTT assay; format: functional, cell-based; conditions: dose 0.1-100 µM
K562 [25] = test: Antiproliferative activity against human K562 cells assessed as inhibition of cell proliferation at 100 uM incubated for 24 to 72 hrs by MTT assay; format: functional, cell-based; conditions: time 24-72 hrs, TDE = time-dependent effect
[26] = target: T1, DNMT3A2/3L complex (Homo sapiens); test: Competitive inhibition of N-terminal His-tagged human DNMT3A (623 to 912 residues)/N-terminal GST-tagged human DNMT3L (160 to 387 residues) co-expressed in baculovirus infected Sf9 cells assessed as DNA methylation using varying concentration of oligonucleotide IDT-01 as substrate preincubated for …; conditions: time 255.0 min

T1 sequence (Q9UJW3 whole entry, looked up, the tested form may be a part): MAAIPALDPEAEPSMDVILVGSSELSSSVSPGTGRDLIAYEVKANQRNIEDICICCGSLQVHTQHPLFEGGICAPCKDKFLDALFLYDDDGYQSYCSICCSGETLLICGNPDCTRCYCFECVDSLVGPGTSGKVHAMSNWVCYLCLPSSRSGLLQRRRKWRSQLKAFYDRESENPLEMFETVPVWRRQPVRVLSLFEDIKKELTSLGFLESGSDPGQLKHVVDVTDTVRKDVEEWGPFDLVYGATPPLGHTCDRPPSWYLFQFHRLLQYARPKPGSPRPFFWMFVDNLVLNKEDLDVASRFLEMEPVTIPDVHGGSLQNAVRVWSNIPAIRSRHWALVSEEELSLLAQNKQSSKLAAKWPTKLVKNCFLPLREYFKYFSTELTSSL
T1 sequence (Q9Y6K1 whole entry, looked up, the tested form may be a part): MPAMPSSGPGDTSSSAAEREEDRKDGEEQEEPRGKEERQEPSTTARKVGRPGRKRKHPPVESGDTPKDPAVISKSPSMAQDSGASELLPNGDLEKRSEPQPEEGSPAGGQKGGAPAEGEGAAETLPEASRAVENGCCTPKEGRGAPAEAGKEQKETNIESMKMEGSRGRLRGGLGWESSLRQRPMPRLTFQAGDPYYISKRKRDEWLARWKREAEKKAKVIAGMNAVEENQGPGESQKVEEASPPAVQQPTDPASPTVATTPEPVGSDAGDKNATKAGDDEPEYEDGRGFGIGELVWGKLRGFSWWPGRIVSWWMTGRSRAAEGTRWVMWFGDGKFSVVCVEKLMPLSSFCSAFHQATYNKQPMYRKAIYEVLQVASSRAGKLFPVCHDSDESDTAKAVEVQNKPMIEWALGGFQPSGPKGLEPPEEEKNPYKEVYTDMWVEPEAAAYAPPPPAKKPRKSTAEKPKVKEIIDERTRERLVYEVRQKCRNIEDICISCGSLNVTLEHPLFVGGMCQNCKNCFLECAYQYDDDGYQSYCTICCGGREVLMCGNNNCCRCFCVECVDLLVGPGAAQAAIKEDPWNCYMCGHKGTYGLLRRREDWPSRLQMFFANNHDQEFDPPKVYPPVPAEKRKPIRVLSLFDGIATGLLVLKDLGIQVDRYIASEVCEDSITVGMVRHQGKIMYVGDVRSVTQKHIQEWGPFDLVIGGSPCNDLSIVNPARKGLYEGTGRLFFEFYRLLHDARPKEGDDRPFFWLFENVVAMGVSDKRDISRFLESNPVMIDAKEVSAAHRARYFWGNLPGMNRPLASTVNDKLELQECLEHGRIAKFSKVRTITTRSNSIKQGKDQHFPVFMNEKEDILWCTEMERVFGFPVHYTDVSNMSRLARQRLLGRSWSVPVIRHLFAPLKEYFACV
Sequence of DNA (cytosine-5)-methyltransferase 3A (Homo sapiens) (Q9Y6K1 whole entry, looked up, the tested form may be a part): as above
Sequence of DNA (cytosine-5)-methyltransferase 1 (P26358 whole entry): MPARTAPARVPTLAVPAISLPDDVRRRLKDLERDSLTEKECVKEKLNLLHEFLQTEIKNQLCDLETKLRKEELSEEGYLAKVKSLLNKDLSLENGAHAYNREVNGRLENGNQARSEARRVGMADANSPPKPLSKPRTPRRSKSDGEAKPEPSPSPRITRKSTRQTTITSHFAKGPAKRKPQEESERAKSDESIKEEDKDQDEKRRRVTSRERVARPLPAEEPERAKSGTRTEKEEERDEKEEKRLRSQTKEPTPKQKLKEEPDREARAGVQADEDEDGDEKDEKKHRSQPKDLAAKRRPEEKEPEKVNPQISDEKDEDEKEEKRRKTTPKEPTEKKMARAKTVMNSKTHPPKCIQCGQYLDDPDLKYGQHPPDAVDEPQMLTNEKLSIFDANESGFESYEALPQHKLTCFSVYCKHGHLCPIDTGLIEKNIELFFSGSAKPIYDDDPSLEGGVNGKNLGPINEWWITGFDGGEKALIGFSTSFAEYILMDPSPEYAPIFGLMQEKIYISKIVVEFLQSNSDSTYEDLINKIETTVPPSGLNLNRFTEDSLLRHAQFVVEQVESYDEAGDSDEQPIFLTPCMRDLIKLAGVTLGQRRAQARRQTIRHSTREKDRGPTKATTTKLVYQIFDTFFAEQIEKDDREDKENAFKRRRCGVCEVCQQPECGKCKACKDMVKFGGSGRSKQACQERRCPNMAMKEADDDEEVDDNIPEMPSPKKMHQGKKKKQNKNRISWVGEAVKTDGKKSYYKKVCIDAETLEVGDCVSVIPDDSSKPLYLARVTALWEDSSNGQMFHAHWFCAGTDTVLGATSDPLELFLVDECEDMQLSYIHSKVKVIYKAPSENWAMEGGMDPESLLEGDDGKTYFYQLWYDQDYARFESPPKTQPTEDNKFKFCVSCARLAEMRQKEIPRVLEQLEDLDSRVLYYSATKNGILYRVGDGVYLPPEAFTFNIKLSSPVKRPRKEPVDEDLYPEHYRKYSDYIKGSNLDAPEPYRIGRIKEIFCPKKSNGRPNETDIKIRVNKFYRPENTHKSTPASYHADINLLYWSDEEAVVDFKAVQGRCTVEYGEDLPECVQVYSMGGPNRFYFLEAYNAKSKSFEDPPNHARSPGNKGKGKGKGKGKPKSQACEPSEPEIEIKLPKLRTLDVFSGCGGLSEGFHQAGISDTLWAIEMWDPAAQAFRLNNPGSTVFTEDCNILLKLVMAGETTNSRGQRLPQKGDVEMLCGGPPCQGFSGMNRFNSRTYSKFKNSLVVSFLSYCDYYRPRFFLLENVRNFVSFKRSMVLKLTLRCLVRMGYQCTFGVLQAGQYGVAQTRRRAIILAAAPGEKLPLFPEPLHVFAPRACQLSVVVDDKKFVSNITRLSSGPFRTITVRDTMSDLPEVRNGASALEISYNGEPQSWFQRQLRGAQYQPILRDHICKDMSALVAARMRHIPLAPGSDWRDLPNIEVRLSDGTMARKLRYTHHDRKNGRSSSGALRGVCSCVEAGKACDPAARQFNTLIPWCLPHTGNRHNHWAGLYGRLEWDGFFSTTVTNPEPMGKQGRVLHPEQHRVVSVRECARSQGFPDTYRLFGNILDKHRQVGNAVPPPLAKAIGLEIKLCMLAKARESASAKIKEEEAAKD

Compound	IC50 (DU-145 [1]) [nM]	IC50 [2] [nM]	IC50 (K562 [3]) [nM]	IC50 (DNMT3B) [nM]	IC50 (U-937 [4]) [nM]	Activity (HCT-116 [5])	Activity (HCT-116 [6])	p53 protein level increase (active/not active) [7]	inhibition [8] [%]	Activity (THP-1 [9])	Activity (U-937 [10])	IC50 (THP-1 [11]) [nM]	Activity (DU-145 [12])	inhibition [13] [%]	IC50 at 72 h [14] [nM]	IC50 (A549 [15]) [nM]	Activity (A549 [16])	Activity (A549 [17])	Activity (THP-1 [18])	IC50 (HCT-116 [19]) [nM]	also measured
Cc1oc2ncn(CCN(C)C)c(=O)c2c1C(=O)Nc1ccc(S(N)(=O)=O)nc1	3700	20900	1600	220000	2300	Tde	Dose-Dependent Effect	Active	81.8	Dose-Dependent Effect	Tde	1800	Dose-Dependent Effect	74.7	131000	4600	Tde	Dose-Dependent Effect	Tde	500	Activity (DU-145 [20]): Tde; inhibition [21]: Active; IC50 [22]: > 500000 nM; Activity (K562 [23]): Dose-Dependent Effect; Activity (U-937 [24]): Dose-Dependent Effect; Activity (K562 [25]): Tde
Cc1oc2ncn(CCN3CCCC3)c(=O)c2c1C(=O)Nc1ccc(S(N)(=O)=O)nc1	1700	13000	500	105000	700	Tde	Dose-Dependent Effect	Active	93.1	Dose-Dependent Effect	Tde	700	Dose-Dependent Effect	83.8	91000	2100	Tde	Dose-Dependent Effect	Tde	300	inhibition [26]: Active; Activity (DU-145 [20]): Tde; inhibition [21]: Active; IC50 [22]: > 500000 nM; Activity (K562 [23]): Dose-Dependent Effect; Activity (U-937 [24]): Dose-Dependent Effect; Activity (K562 [25]): Tde

— ChEMBL document CHEMBL5352402, “Discovery of novel non-nucleoside inhibitors with high potency and selectivity for DNA methyltransferase 3A” (Eur J Med Chem, 2022)
